Test results published in patent EP0583821A1, “Atriopeptins, guanylate cyclase activators, and phosphodiesterase inhibitors as treatment for glaucoma, hydrocephalus and cerebral edema (cranial fluid volume dysfunction)” (THE GENERAL HOSPITAL CORPORATION, priority 1987, dated 1988).

How the values were obtained:
adenylate cyclase = experiment: Adenylate cyclase activity in P1 fractions of whole choroid; type: biochemical, rabbit; settings: rANP at high concentrations
Procedure: (§1) The effect of rANP on membrane-bound guanylate cyclase and adenylate cyclase activity in various brain-barrier tissues and tissue fractions from rabbit was compared with its activity in cerebrum and cerebellum. Guanylate cyclase was measured as the rate of cyclic GMP formation by modifications of the technique of Waldman et al., supra, incorporated herein by reference. Briefly, tissues were homogenized (10 mg wet weight per milliliter) in 50 mM tris-HCl, pH 8.0, 1 mM EDTA, 1 mM dithiothreitol, and 250 mM sucrose and centrifuged at 100,000g to obtain a P1 pellet. Reaction tubes contained (in 0.3 ml), 50 mM tris, pH 7.6, 6 mM MnCl₂, 0.5 mM 3-isobutyl, 1-methylxanthine (IBMX), 10 mM theophylline, 3 mM GTP, hormone (in 0.03 ml containing 2.5 mM ascorbic acid and 0.1% bovine serum albumin), and 0.06 ml of P1 fraction (40 to 60 ug of protein). The reaction (4 minutes at 30°C) was started by addition of GTP and terminated by addition of 0.3 ml of 150 mM sodium acetate (pH 4.0) and boiling for 3 minutes. Cyclic GMP formed was subsequently measured by radioimmunoassay as described in example 6, infra. Under these conditions, guanylate cyclase activity was linear with time and tissue concentration. Adenylate cyclase activity in P1 fractions was measured according to the method described by Nathanson, et al., Science; 204:843 (1979); Mol. Pharmacol. 18:199 (1980), see Figure 1C . […] Neurosci. […]

rabbits [1] = experiment: CSF production by ventricular-cisternal perfusion after intraventricular drug; type: in vivo, rabbit
Procedure: Drug was given intraventricularly, either by bolus injection or by continuous addition (during a 10-minute period) to the CSF perfusion system. Ventricular-cisternal perfusion of Blue dextran was carried out by a closed system with active pumping both into and out of the catheters at a rate of […]. Output dye concentration was monitored continuously with an in-line photocell; and a separate, contralateral venticular catheter independently measured intracranial pressure. […] Drug was administered in an artificial CSF containing 0.01% rabbit serum albumin (RSA) and 0.25 mM ascorbate. […] In one animal, there was no change in CSF secretion rate, and in no case was there an increase in CSF production. […] During a period of 100 minutes, secretion rate dropped by 70%.

rabbits [2] = experiment: Peripheral blood pressure after intravenous injection; type: in vivo, rabbit; settings: intravenous injection of similar doses
guanylate cyclase = molecular target: T1, guanylate cyclase (Oryctolagus cuniculus, UniProt G1TXB5); experiment: Guanylate cyclase in membrane fractions of cerebellum; type: biochemical, rabbit; set-up: tissues were homogenized (10 mg wet weight per milliliter); from tissue; host or cells: rabbit cerebral microvessels, choroid plexus, kidney, ciliary process, pia-arachnoid, cerebellum; 100,000 g P1 pellet
T1 sequence (G1TXB5 28-1056): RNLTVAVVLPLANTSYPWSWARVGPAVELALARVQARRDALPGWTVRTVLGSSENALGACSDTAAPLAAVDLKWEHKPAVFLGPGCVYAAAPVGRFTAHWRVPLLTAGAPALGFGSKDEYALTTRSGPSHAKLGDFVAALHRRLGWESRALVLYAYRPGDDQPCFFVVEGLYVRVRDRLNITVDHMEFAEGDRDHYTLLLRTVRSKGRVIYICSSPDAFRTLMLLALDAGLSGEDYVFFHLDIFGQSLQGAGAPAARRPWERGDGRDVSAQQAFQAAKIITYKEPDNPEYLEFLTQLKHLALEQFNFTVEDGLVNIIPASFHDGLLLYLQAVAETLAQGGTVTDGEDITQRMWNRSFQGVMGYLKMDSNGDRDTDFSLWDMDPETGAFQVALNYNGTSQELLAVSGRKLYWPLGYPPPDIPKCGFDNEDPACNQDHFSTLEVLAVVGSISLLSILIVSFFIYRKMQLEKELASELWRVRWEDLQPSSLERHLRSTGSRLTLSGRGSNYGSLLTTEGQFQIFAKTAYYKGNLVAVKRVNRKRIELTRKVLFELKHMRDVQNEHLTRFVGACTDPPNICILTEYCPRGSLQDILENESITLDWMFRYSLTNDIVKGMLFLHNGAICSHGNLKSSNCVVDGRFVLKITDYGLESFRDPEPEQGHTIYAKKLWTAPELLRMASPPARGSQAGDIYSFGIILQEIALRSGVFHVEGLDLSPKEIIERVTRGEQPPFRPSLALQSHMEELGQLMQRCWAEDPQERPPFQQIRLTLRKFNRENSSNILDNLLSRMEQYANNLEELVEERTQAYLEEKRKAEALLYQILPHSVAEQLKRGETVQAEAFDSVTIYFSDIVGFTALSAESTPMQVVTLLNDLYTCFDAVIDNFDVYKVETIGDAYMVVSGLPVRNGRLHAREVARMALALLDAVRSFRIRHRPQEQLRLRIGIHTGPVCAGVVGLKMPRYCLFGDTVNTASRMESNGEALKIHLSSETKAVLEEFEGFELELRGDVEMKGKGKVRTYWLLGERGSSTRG
Procedure: as §1

Substance: Ser-Leu-Arg-Arg-atriopeptin III (APIII) [rANP 1-28]
- effect on adenylate cyclase activity (adenylate cyclase): small inhibition
- mean decrease in rate of CSF production (rabbits [1]; 13 positive responses, SEM, 30 pmol bolus or 3 to 30 pmol/min for 10 minutes intraventricular): 35.3% ± 6.9%
- drop of CSF secretion rate (rabbits [1]; bolus injection of 30 pmol into the lateral ventricle, during 100 minutes, Fig. 3): 70%
- positive responses (decrease in CSF production) (rabbits [1]; intraventricular bolus or infusion): 13 of 14
- peripheral blood pressure (rabbits [2]): no change
- stimulation of guanylate cyclase (guanylate cyclase): moderate amount of stimulation
